Values quoted from earlier work, collected in PMC6155021, “Ancient and modern anticonvulsants act synergistically in a KCNQ potassium channel binding pocket” (Nature Communications, 2018).

Parameters: method as in PMID 24781306
Details: cited from earlier work

In the case of `CC(=O)O` [acetate], the “crossing of the blood brain barrier” value is listed as “readily cross the blood brain barrier”.
